Assay results as given in patent US3984555A, “Therapeutic piperazinylalkyl-quinazolone-(4)-derivatives” (Byk Gulden Lomberg Chemische Fabrik Gesellschaft mit …, priority 1970, dated 1976).
Read-outs that look alike come from different tables or passages of the source.

Legend:
[1] = system: defence reaction after the thermal stimulation of the tail of the mouse; assay: Analgesic effect on the mouse: delay in defence reaction after thermal stimulation of the tail (Table IV); format: in vivo; details: po, read-out: Delay in the defence reaction after the thermal stimulation of the tail of the mouse by 25% by mg/kg per os
Text: From Table IV below one can see the analgesic action, measured in terms of the delayed reaction during the thermal irritation of the mouse tail. The analgesically effective doses are also below those which reduce the motor behaviour, that is to say the normal movement processes (cf. Table III).
Analgesic effect on the mouse
Delay in the defence reaction after
the thermal stimulation of the tail

mouse [2] = assay: Mice falling from a rotating bar (Table III, a); format: in vivo; details: ip, read-out: a PD50 mg/kg i.p.
Text: The central damping actions of the piperazinyl quinazolones on the mouse can be seen from Table III.
a = dose at which 50% of the mice fall from a rotating bar;

[3] = system: duration of sleep of mice under hexobarbital; assay: Prolongation of hexobarbital sleep in mice (Table III, d); format: in vivo; details: Mus musculus, ip; 15 mg/kg i.p.; 75 mg/kg hexobarbital; read-out: d % prolongation of sleep under hexebarbital by 15 mg/kg i.p.
Protocol: d = percentage prolongation of the duration of sleep of mice which had received 75 mg/kg. of hexobarbital, reckoned on the duration of the sleep of control animals.

[4] = system: running activity of mice pre-treated with α-amphetamine sulphate; assay: Inhibition of running activity of mice pre-treated with α-amphetamine sulphate (Table III, c); format: in vivo; details: Mus musculus, ip, 3 h, 5 mg/kg α-amphetamine sulphate, 180 minutes; for inhibition in vivo at 12 mg/kg: 12mg/kg i/p, read-out: c % inhibition of motility in the treadwheel by 12mg/kg i/p; for inhibition in vivo at 25 mg/kg: 25mg/kg i/p, read-out: c % inhibition of motility in the treadwheel by 25mg/kg i/p
mouse [5] = assay: Inhibition of spontaneous motility, sedation, muscular relaxation, loss of grip on horizontal wire mesh in mice (Table III, b); format: in vivo; details: po, dose at which an average of 50% of the mice display symptoms, read-out: b SD50 mg/kg oral
[6] = LD50 (mean lethal dose) on the mouse (Table II); details: in vivo
Text: (§1) on the despinalised rat. The mean lethal doses for the mouse are also

[7] = system: hypertensive effect of noradrenalin; assay: 50% inhibition of hypertensive effect of 0.001 mg/kg i/v noradrenalin on the despinalised rat (Table II); format: in vivo; details: iv, read-out: 50% inhibition of hypertensive effect after i/v dose of Noradrenalin by mg/kg i/v
Protocol: (§2) also on the hypertensive effect of 0.001 mg/kg i/v 1-adrenalin and
(§3) blood pressure and the cardiac frequency of the narcosed rate and also on
(§4) the hypertensive effect of 0.001 mg/kg i.v. 1-adrenaline and noradrenaline
as §1

[8] = system: blood pressure and cardiac frequency of the narcotised rat; assay: Influence on the blood pressure and the cardiac frequency of the narcotised rat (Table II); format: in vivo; details: iv, i/v, read-out: Blood pressure lowered by 30% by mg/kg i/v
Text: Influence on the blood pressure and the cardiac frequency of the
blood pressure and the cardiac frequency of the narcosed rate and also on […]

[9] = system: hypertensive effect of 1-adrenalin; assay: 50% inhibition of hypertensive effect of 0.001 mg/kg i/v 1-adrenalin on the despinalised rat (Table II); format: in vivo; details: iv, read-out: 50% inhibition of hypertensive effect after i/v dose of Adrenalin by mg/kg i/v
Protocol: as §2, §3, §4, §1

[10] = system: blood pressure and cardiac frequency of the narcotised cat; assay: Influence on the blood pressure and cardiac frequency of the narcotised cat (Table I); format: in vivo; design: unit not given here; details: for Blood pressure lowered by 30% by: dose lowering blood pressure by 30%; for Blood pressure lowered by 50% by: dose lowering blood pressure by 50%
Text: (§5) Influence on the blood pressure and cardiac frequency and also
(§6) on the carotid sinus reflex of the narcotised cat
(§7) Table I provides a general summary of the influence of different piperazinylquinazolones on the blood pressure, the cardiac frequency and the carotid sinus reflex of the narcotised cat.

carotid sinus reflex = assay: Inhibition of the carotid sinus reflex of the narcotised cat (Table I); format: in vivo; design: unit not given here; details: for Inhibition of the carotid sinus reflex by 30% by: dose for 30% inhibition; for Inhibition of the carotid sinus reflex by 50% by: dose for 50% inhibition
Text: as §5, §6, §7
The inhibition of the carotid sinus reflex brought about by the piperazinyl quinazolones occurs at lower doses than the spontaneous lowering of the blood pressure in the cat.

[11] = dose at which 50% of the mice fall from a rotating bar

Row | Compound | ED25 ([1]; mouse, per os, 25% delay) | ED50 (mouse [2]) | change in vivo at 15 mg/kg [3] | inhibition in vivo at 12 mg/kg [4] | inhibition in vivo at 25 mg/kg [4] | ED50 (mouse [5]) | LD50 [6] | ED50 [7] | ED30 [8] | ED50 [9] | further results
1 | Cc1c(N(C)C)c(=O)n(-c2ccccc2)n1C [Aminophenazone, 4-dimethylamino-1-phenyl-2,3-dimethylpyrazolone-5, reference compound] | 80 mg/kg | – | – | – | – | – | – | – | – | – | –
2 | CNC1=Nc2ccc(Cl)cc2C(c2ccccc2)=[N+]([O-])C1 [Chlordiazepoxide, chlorodiazepoxide, reference compound] | – | 38 mg/kg | 324% | 15% | 19% | 8 mg/kg | – | – | – | – | –
3 | COc1cc2nc(CCN3CCN(c4ccccc4)CC3)[nH]c(=O)c2cc1OC [Example 1, 2-(2-(1-phenylpiperazinyl-4)ethyl)-6,7-dimethoxy-4(3H)-quinazolone] | 1.5 mg/kg | 33 mg/kg | 64% | 15% | 55% | 1000 mg/kg | 70 mg/kg | 5 mg/kg | 0.3 mg/kg | 0.23 mg/kg | –
4 | COc1cc2nc(CCN3CCN(c4cccc(C)c4)CC3)[nH]c(=O)c2cc1OC [Example 3, 2-(2-(1-(3-tolyl)piperazinyl-4)ethyl)-6,7-dimethoxy-4(3H)-quinazolone] | 2 mg/kg | 24 mg/kg | 69% | 13% | 41% | 60 mg/kg | 200 mg/kg | 5 mg/kg | 0.32 mg/kg | 0.35 mg/kg | –
5 | COc1cc2nc(CCN3CCN(c4ccc(C)cc4)CC3)[nH]c(=O)c2cc1OC [Example 4] | 3 mg/kg | 23 mg/kg | 125% | 51% | 65% | 70 mg/kg | 100 mg/kg | – | 0.65 mg/kg | – | –
6 | COc1cc2nc(CCN3CCN(c4cccc(C(F)(F)F)c4)CC3)[nH]c(=O)c2cc1OC [Example 5, 2-(2-(1-(3-trifluoromethylphenyl)piperazinyl-4)ethyl)-6,7-dimethoxy-4(3H)-quinazolone] | < 1 mg/kg | – | – | – | – | – | – | – | – | – | –
7 | COc1cc2nc(CCN3CCN(c4ccccc4OC)CC3)n(C)c(=O)c2cc1OC [Example 8] | – | – | – | – | – | – | 350 mg/kg | – | 0.12 mg/kg | 0.035 mg/kg | –
8 | CCOc1ccccc1N1CCN(CCc2nc3cc(OC)c(OC)cc3c(=O)[nH]2)CC1 [Example 10, 2-(2-(1-(2-ethoxyphenyl)piperazinyl-4)ethyl)-6,7-dimethoxy-4(3H)-quinazolone] | 2 mg/kg | – | – | – | – | – | 300 mg/kg | 1.8 mg/kg | 0.4 mg/kg | 0.0085 mg/kg | Blood pressure lowered by 30% by [10]: 0.03; Blood pressure lowered by 50% by [10]: 1.4; Inhibition of the carotid sinus reflex by 30% by (carotid sinus reflex): < 0.02; Inhibition of the carotid sinus reflex by 50% by (carotid sinus reflex): 0.03
9 | COc1cc2nc(CCN3CCN(c4cccc(Cl)c4)CC3)[nH]c(=O)c2cc1OC [Example 12, 2-(2-(1-(3-chlorophenyl)piperazinyl-4)ethyl)-6,7-dimethoxy-4(3H)-quinazolone] | 1.5 mg/kg | – | 78% | 0% | 19% | 500 mg/kg | – | – | – | – | ED50 (mouse [2]; [11]): 34 mg/kg
10 | COc1cc2nc(CCN3CCN(c4ccc(Cl)cc4)CC3)[nH]c(=O)c2cc1OC [Example 13, 2-(2-(1-(4-chlorophenyl)piperazinyl-4)ethyl)-6,7-dimethoxy-4(3H)-quinazolone] | 2 mg/kg | – | 44% | 15% | 15% | 200 mg/kg | – | – | – | – | ED50 (mouse [2]; [11]): 46 mg/kg
11 | COc1cc2nc(CCN3CCN(c4cccc(F)c4)CC3)[nH]c(=O)c2cc1OC [Example 15, 2-(2-(1-(3-fluorophenyl)piperazinyl-4)ethyl)-6,7-dimethoxy-4(3H)-quinazolone] | 1 mg/kg | – | – | – | – | – | 200 mg/kg | 4.3 mg/kg | 0.2 mg/kg | 0.32 mg/kg | –
12 | COc1cc2nc(CCN3CCN(c4ccc(F)cc4)CC3)[nH]c(=O)c2cc1OC [Example 16, 2-(2-(1(4-fluorophenyl)piperazinyl-4)ethyl)-6,7-dimethoxy-4(3H)-quinazolone] | 2.5 mg/kg | 14 mg/kg | 103% | 10% | 49% | 65 mg/kg | 300 mg/kg | 4 mg/kg | 0.6 mg/kg | 0.57 mg/kg | –
13 | COc1ccc(N2CCN(CCc3nc4cc(OC)c(OC)cc4c(=O)[nH]3)CC2)cc1 [Example 17, 2-(2-(1-(4-methoxyphenyl)piperazinyl-4)ethyl)-6,7-dimethoxy-4(3H)-quinazolone] | 2 mg/kg | – | – | – | – | – | – | – | – | – | Blood pressure lowered by 30% by [10]: 4.5; Blood pressure lowered by 50% by [10]: > 1.5
14 | COc1cc2nc(CN3CCN(c4ccccc4OC)CC3)[nH]c(=O)c2cc1OC [Example 18, 2-(1-(2-methoxyphenyl)piperazinyl-4)methyl-6,7-dimethoxy-4(3H)-quinazolone] | 8 mg/kg | – | > 15% | – | 12% | 1000 mg/kg | – | – | – | – | –
15 | COc1cc2nc(CCCN3CCN(c4ccccc4OC)CC3)[nH]c(=O)c2cc1OC [Example 20, 2-(3-(1-(2-methoxy-phenyl)-piperazinyl-4)-n-propyl)-6,7-dimethoxy-4(3H)-quinazolone] | 2 mg/kg | – | – | – | – | – | 300 mg/kg | 1.15 mg/kg | 0.65 mg/kg | 0.05 mg/kg | –
16 | CCCC(C)(COC(N)=O)COC(N)=O [Meprobamate, reference compound] | – | 95 mg/kg | 18% | 11% | 28% | 300 mg/kg | – | – | – | – | –
17 | CN1CC[C@]23c4c5ccc(O)c4O[C@H]2[C@@H](O)C=C[C@H]3[C@H]1C5.Cl [Morphine hydrochloride, morphine hydrochloride, reference compound] | – | – | – | – | – | – | – | – | – | – | ED25 ([1]; Mus musculus): 2 mg/kg
18 | Cc1ccc(N(CC2=NCCN2)c2cccc(O)c2)cc1 [Phentolamine, phentolamine, reference compound] | – | – | – | – | – | – | 200 mg/kg | 0.18 mg/kg | 0.63 mg/kg | 0.047 mg/kg | Blood pressure lowered by 30% by [10]: 0.1; Blood pressure lowered by 50% by [10]: 0.7; Inhibition of the carotid sinus reflex by 30% by (carotid sinus reflex): 0.1; Inhibition of the carotid sinus reflex by 50% by (carotid sinus reflex): 0.5
